# Laboratory results published in patent US20070026026A1 (priority 2005, published 2007).
# Columns and labels:
# [1] = Example 2.2 B stability with PG and glycerin or PG and PEG 400 at 50° C. (HPLC); format: physicochemical; conditions: for degradation: after 816 hours at 50° C.
# Experimental: X represents the amount in mL of SPB added to provide 8.5 mL. […] Five different formulations were prepared and analyzed. Each sample was evaluated by HPLC. The samples were then stored at 50° C. for about 1 month and analyzed periodically.
# [2] = Example 2.2 A stability of losartan potassium in SPB with propylene glycol at 50° C. (HPLC); format: physicochemical; conditions: for degradation: after more than 1 month (816 hours) at 50° C.
# Experimental: X represents the amount in mL of SPB added to provide 10 mL. […] Each formulation was evaluated by HPLC. The samples were then stored at 50° C. for about 1 month and analyzed periodically.
# [3] = cited from earlier work
# [4] = Another study (not described): PG and PEG 400 effect on stability of losartan potassium; format: physicochemical
# From the text: Therefore, in one embodiment PG is preferred over PEG 400.
# [5] = Example 1.1 solubility of losartan potassium with and without buffering agent (visual); format: physicochemical; conditions: for solubility: thermodynamic from solid, visual
# Experimental: After 24 hours, the samples were examined. […] Formulations at these pHs of about 7 or greater should prevent precipitation of the drug.
# [6] = Example 2.3 stability of saccharin-containing compositions at 50° C. (HPLC); format: physicochemical; conditions: for stability of losartan (percent active): saccharin sodium, 50° C.
# Experimental: Two different concentrations of glycerin (30 percent and 40 percent by volume) and 2 different pHs of the phosphate buffer (7.4 and 8.2) were studied. Four different compositions that contained saccharin were prepared and analyzed. The materials used were losartan potassium; saccharin sodium; propylene glycol (PG); glycerin; and potassium phosphate buffer (PPB) prepared in-house. […] Three mL of PG were then added to the vortexed mixture, (17-X) mL of glycerin added, and this mixture vortexed for 2 minutes. X represents the amount in mL of PPB added to provide 17 mL. Each sample was then stored at 50° C. and evaluated by HPLC periodically.
# [7] = Example 2.1 stability of losartan potassium in phosphate buffers at 50° C. (HPLC); format: physicochemical; conditions: for stability (percent active on a weight basis): 50° C.; for degradation of the original losartan: pH 7.4
# Experimental: The three variables were the pH of the buffer, cation of the buffer, and concentration of the phosphate salt in the buffer. The pHs studied were 7.4 and 8.2; the cations studied were potassium and sodium; and the concentrations studied were 10 mM and 100 mM.
# The materials used were sodium phosphate buffer (SPB) and potassium phosphate buffer (PPB) prepared in-house and losartan potassium. […] A sample of each solution was taken and analyzed by HPLC. The different solutions were then stored at 50° C. […] The stability (measured as percent active on a weight
# [8] = Example 1.2 solubility of losartan potassium in sodium phosphate buffers by HPLC; format: physicochemical; conditions: for solubility at 0 h / solubility at 48 h / solubility at 480 h: sodium phosphate buffer, aqueous buffer, thermodynamic from solid, room temperature, HPLC
# From the text: The materials used were sodium phosphate buffer (SPB) prepared in-house and losartan potassium. […] A sample of each solution was then taken and analyzed by HPLC. […] Each sample was stored at room temperature and data was collected as a function of time.
# [9] = Example 2.2 C stability with PG, glycerin and xylitol at 50° C. (HPLC); format: physicochemical; conditions: after about 1 month at 50° C.
# Experimental: Even with 30 percent glycerin present, in some embodiments it is desired to add additional sweetener as the composition may not be sweet enough for some patients. Accordingly, a stronger sweetener was considered for use in the composition. […] Thus, the stability of a composition of propylene glycol (PG), glycerin, and xylitol was studied and evaluated. […] PG (1.5 mL) was then added, this mixture was vortexed for 1 minute, 3 mL of glycerin was added, and this mixture was finally vortexed for 1 minute. […] Four different formulations were prepared and analyzed. Each sample was evaluated by HPLC. The samples were then stored at 50° C. for about 1 month and analyzed periodically.
smiles,measurement,setting,value
"CCCCc1nc(Cl)c(CO)n1Cc1ccc(-c2ccccc2-c2nnn[nH]2)cc1.[K] [losartan potassium, 2-butyl-4-chloro-1-[p-(o-1H-tetrazol-5-ylphenyl)benzyl]imidazole-5-methanol monopotassium salt]",degradation,[1]; SPB with 15 percent PG and 10 percent PEG 400,0.33%
same,degradation,[1]; SPB with 15 percent PG and up to 30 percent glycerin,less than 0.5%
same,effect on stability in words,"[1]; increasing PEG 400 to 30 percent in the composition, 50° C.",decreased the stability
same,degradation,[2]; 10 percent PG in SPB pH 7.2,less than 0.4%
same,degradation,[2]; 15 percent PG in SPB pH 7.2,less than 0.4%
same,stability in words,"[2]; 30 percent PG in SPB pH 7.2, 50° C.",unexpectedly good
same,solubility in alcohols,[3],soluble
same,solubility in chloroform,[3],practically insoluble
same,"solubility in common organic solvents, such as acetonitrile and methylethyl ketone",[3],slightly soluble
same,solubility in water,[3],freely soluble
same,effect of PEG 400 on stability,[4]; in SPB,improve the stability
same,effect of PG on stability,[4]; in SPB,improve the stability
same,effect of PEG 400 on stability,[4]; in water,did not improve the stability
same,crystals after storage of the solubility sample,"[5]; SPB pH 6.2, stored at 50° C. overnight, examined after 24 hours",crystals were observed
same,solubility,"[5]; organic solvent or mixture, Ethanol",130000 µg/mL
same,solubility,"[5]; sodium phosphate buffer, aqueous buffer, SPB 10 mM, pH 1.9",48 µg/mL
same,solubility,"[5]; sodium phosphate buffer, aqueous buffer, SPB 10 mM, pH 6.2",> 241000 µg/mL
same,solubility,"[5]; sodium phosphate buffer, aqueous buffer, SPB 10 mM, pH 7.2",300000 µg/mL
same,solubility,"[5]; sodium phosphate buffer, aqueous buffer, SPB 10 mM, pH 8.2",> 253000 µg/mL
same,solubility,"[5]; Water, pH 5.5",> 243000 µg/mL
same,solubility,"[5]; water with HCl, aqueous buffer, Water + HCl, pH 2.1",280 µg/mL
same,solubility,"[5]; water with NaOH, aqueous buffer, Water + NaOH, pH 11.8",> 239000 µg/mL
same,stability of losartan (percent active),"[6]; 30% glycerin, PPB pH = 7.4, PG, 0 hour",99.88%
same,stability of losartan (percent active),"[6]; 30% glycerin, PPB pH = 7.4, PG, 72 hours",99.91%
same,stability of losartan (percent active),"[6]; 30% glycerin, PPB pH = 7.4, PG, 288 hours",99.88%
same,stability of losartan (percent active),"[6]; 30% glycerin, PPB pH = 7.4, PG, 1152 hours",99.65%
same,stability of losartan (percent active),"[6]; 30% glycerin, PPB pH = 8.2, PG, 0 hour",99.88%
same,stability of losartan (percent active),"[6]; 30% glycerin, PPB pH = 8.2, PG, 72 hours",99.88%
same,stability of losartan (percent active),"[6]; 30% glycerin, PPB pH = 8.2, PG, 288 hours",99.89%
same,stability of losartan (percent active),"[6]; 30% glycerin, PPB pH = 8.2, PG, 1152 hours",99.86%
same,stability of losartan (percent active),"[6]; 40% glycerin, PPB pH = 7.4, PG, 0 hour",99.88%
same,stability of losartan (percent active),"[6]; 40% glycerin, PPB pH = 7.4, PG, 72 hours",99.88%
same,stability of losartan (percent active),"[6]; 40% glycerin, PPB pH = 7.4, PG, 288 hours",99.88%
same,stability of losartan (percent active),"[6]; 40% glycerin, PPB pH = 7.4, PG, 1152 hours",99.73%
same,stability of losartan (percent active),"[6]; 40% glycerin, PPB pH = 8.2, PG, 0 hour",99.88%
same,stability of losartan (percent active),"[6]; 40% glycerin, PPB pH = 8.2, PG, 72 hours",99.88%
same,stability of losartan (percent active),"[6]; 40% glycerin, PPB pH = 8.2, PG, 288 hours",99.92%
same,stability of losartan (percent active),"[6]; 40% glycerin, PPB pH = 8.2, PG, 1152 hours",99.82%
same,degradation in words,"[6]; saccharin-containing compositions, after 12 days (288 hours) and even at 1152 hours at 50° C.",Minimal degradation
same,stability (percent active on a weight basis),"[7]; PPB, 10 mM, pH = 7.4, 0 hours",99.93%
same,stability (percent active on a weight basis),"[7]; PPB, 10 mM, pH = 7.4, 24 hours",99.90%
same,stability (percent active on a weight basis),"[7]; PPB, 10 mM, pH = 7.4, 264 hours",99.14%
same,stability (percent active on a weight basis),"[7]; PPB, 10 mM, pH = 7.4, 672 hours",98.74%
same,stability (percent active on a weight basis),"[7]; PPB, 100 mM, pH = 7.4, 0 hours",99.93%
same,stability (percent active on a weight basis),"[7]; PPB, 100 mM, pH = 7.4, 24 hours",99.90%
same,stability (percent active on a weight basis),"[7]; PPB, 100 mM, pH = 7.4, 264 hours",99.32%
same,stability (percent active on a weight basis),"[7]; PPB, 100 mM, pH = 7.4, 672 hours",98.84%
same,degradation of the original losartan,"[7]; SPB 10 mM, after about 1 month at 50° C.",around 1.5%
same,degradation of the original losartan,"[7]; SPB 100 mM, after about 1 month at 50° C.",about 1%
same,stability (percent active on a weight basis),"[7]; SPB, 10 mM, pH = 7.4, 0 hours",99.96%
same,stability (percent active on a weight basis),"[7]; SPB, 10 mM, pH = 7.4, 24 hours",99.90%
same,stability (percent active on a weight basis),"[7]; SPB, 10 mM, pH = 7.4, 264 hours",99.12%
same,stability (percent active on a weight basis),"[7]; SPB, 10 mM, pH = 7.4, 672 hours",98.49%
same,stability (percent active on a weight basis),"[7]; SPB, 10 mM, pH = 8.2, 0 hours",99.93%
same,stability (percent active on a weight basis),"[7]; SPB, 10 mM, pH = 8.2, 24 hours",99.91%
same,stability (percent active on a weight basis),"[7]; SPB, 10 mM, pH = 8.2, 264 hours",99.68%
same,stability (percent active on a weight basis),"[7]; SPB, 10 mM, pH = 8.2, 672 hours",99.59%
same,stability (percent active on a weight basis),"[7]; SPB, 100 mM, pH = 7.4, 0 hours",99.93%
same,stability (percent active on a weight basis),"[7]; SPB, 100 mM, pH = 7.4, 24 hours",99.90%
same,stability (percent active on a weight basis),"[7]; SPB, 100 mM, pH = 7.4, 264 hours",99.34%
same,stability (percent active on a weight basis),"[7]; SPB, 100 mM, pH = 7.4, 672 hours",98.90%
same,stability (percent active on a weight basis),"[7]; SPB, 100 mM, pH = 8.2, 0 hours",99.93%
same,stability (percent active on a weight basis),"[7]; SPB, 100 mM, pH = 8.2, 24 hours",99.91%
same,stability (percent active on a weight basis),"[7]; SPB, 100 mM, pH = 8.2, 264 hours",99.77%
same,stability (percent active on a weight basis),"[7]; SPB, 100 mM, pH = 8.2, 672 hours",99.66%
same,degradation,"[7]; SPB, pH of 8.2, after about 1 month at 50° C.",about 0.4%
same,precipitation on storage,[8]; SPB pH of 6.2,some re-precipitation was observed
same,solubility in words,[8]; pH under 6.2,practically insoluble
same,precipitation on storage,[8]; pHs of 7.4 and higher,no precipitation was observed
same,solubility at 0 h,[8]; SPB pH = 1.7,1070 µg/mL
same,solubility at 48 h,[8]; SPB pH = 1.7,152 µg/mL
same,solubility at 480 h,[8]; SPB pH = 1.7,30 µg/mL
same,solubility at 0 h,[8]; SPB pH = 6.2,1620 µg/mL
same,solubility at 48 h,[8]; SPB pH = 6.2,1650 µg/mL
same,solubility at 480 h,[8]; SPB pH = 6.2,60 µg/mL
same,solubility at 0 h,[8]; SPB pH = 7.4,> 250000 µg/mL
same,solubility at 48 h,[8]; SPB pH = 7.4,> 250000 µg/mL
same,solubility at 480 h,[8]; SPB pH = 7.4,> 250000 µg/mL
same,solubility at 0 h,[8]; SPB pH = 8.2,> 250000 µg/mL
same,solubility at 48 h,[8]; SPB pH = 8.2,> 250000 µg/mL
same,solubility at 480 h,[8]; SPB pH = 8.2,> 250000 µg/mL
same,degradation,"[9]; 5 mg/mL, 1 percent xylitol",about 0.45%
same,degradation,"[9]; 5 mg/mL, 2 percent xylitol",about 0.5%
same,degradation,"[9]; 25 mg/mL, 1 percent xylitol",approximately 0.7%
same,degradation,"[9]; 25 mg/mL, 2 percent xylitol",approximately 0.7%
